Test results as given in US10413583B2, “Synthetic substrates for enzymes that catalyze reactions of modified cysteines and related methods” (The University of Chicago, priority 2016, dated 2019).

Experiments:
APT2 [1] = target: T1, APT2 (Homo sapiens, UniProt O95372); test: In vitro kinetic assays and emission spectra of DPP-1, DPP-4, DPP-5 with APT2 (no detergent); format: biochemical
T1 construct: His-tag; made in house; host or cells: E. coli ROSETTA DE3
Experimental: (§1) 150 μL of 2 μM DPP-1, DPP4 or DPP-5 in HEPES (20 mM, pH=7.4, 150 mM NaCl) were added to a 96-well optical bottom plate (Nunc 265301, Fisher Scientific, Pittsburgh, Pa., United States of America) at room temperature. 150 μL of either HEPES buffer alone or HEPES buffer containing 100 nM APT1 or APT2 (purification using previous methods), was added using a multi-channel pipette, resulting in a final concentration of 1 μM DPP-1/DPP4/DPP-5 and 50 nM APT1 or APT2. Fluorescence intensities (λex 490/20 nm, λem 545/20 nm, Gain 80, read from bottom with height 4.5 mm, and sweep method) were measured at 15 s time intervals for 30 min at 37° C. Following the 30 min kinetic run, emission spectra were obtained (λex 480/20 nm, Aem515-700 nm, Gain 80, read from bottom with height 4.5 mm, and sweep method).

[2] = Log P analysis of DPP-1/4/5; format: physicochemical; settings: 1-octanol / Hepes buffer
Experimental: 2 μL of 1 mM of DPP-1/4/5 was dissolved in 500 μL of Hepes buffer in two 1.5 mL tubes. To one tube, 500 μL of 1-octanol was added and the tube was shaken for 10 min followed by keeping it undisturbed for 10 min. Then, 10 μL of aqueous phase from each tube was placed in a 96 well plate reader. To this, 190 μL of 1M NaOH was added and fluorescence intensities (λex 490/20 nm, λem 545/20 nm, Gain 80, read from bottom with height 4.5 mm, and sweep method) were measured at 15 second time intervals for 1 hr at room temperature. The fluorescence read out at saturation was used to calculate Log P values by following equation: log P=log(Foct/Faq) Foct=Ftotal−Faq where: Foct=Fluorescence of 1-octanol fraction; Faq=Fluorescence of the aqueous fraction after treatment with 1-octanol, and Ftotal=Fluorescence of the aqueous fraction with no treatment with 1-octanol.

APT2 [3] = target: T1, APT2; test: Enzyme kinetics analysis of DPP-5 with APT2; format: biochemical; settings: APT2 50 nM
Experimental: (§2) 150 μL of 1 M DTT in HEPES buffer was added to different concentrations of 150 μL DPP-5 and then the stable fluorescence intensities of totally deacylated product were measured by the methods described above. Fluorescence intensity of per molar deacylated-product was then calculated by linear least-squares fitting of plots of fluorescence vs. concentration. For Michaelis-Menten constant, in vitro kinetics curves were obtained for different final concentrations of DPP-5 in HEPES with 50 nM APT1 or APT2. The fluorescence intensities measured were then normalized to the concentrations of product by fluorescence-intensity-permolar-product. A Lineweaver-Burk plot was used to calculate the Michaelis constant, KM, and the maximum velocity, Vmax, which is proportional to kcat by concentration of APT1 or APT2. All fits have R^2 values of >0.99.

APT1 [4] = target: T2, APT1 (Homo sapiens, UniProt O75608); test: In vitro kinetic assays and emission spectra of DPP-1, DPP-4, DPP-5 with APT1 (no detergent); format: biochemical
T2 construct: His-tag; made in house; host or cells: E. coli ROSETTA DE3
Experimental: as §1

APT1 [5] = target: T2, APT1; test: Enzyme kinetics analysis of DPP-5 with APT1; format: biochemical; settings: APT1 50 nM
Experimental: as §2

T1 sequence (O95372 whole entry): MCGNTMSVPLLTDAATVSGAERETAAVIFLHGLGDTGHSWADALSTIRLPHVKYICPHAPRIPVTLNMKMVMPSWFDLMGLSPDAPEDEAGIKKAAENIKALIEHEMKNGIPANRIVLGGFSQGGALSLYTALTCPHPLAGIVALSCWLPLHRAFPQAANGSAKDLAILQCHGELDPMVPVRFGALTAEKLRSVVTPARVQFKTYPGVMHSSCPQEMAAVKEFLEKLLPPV
T2 sequence (O75608 whole entry): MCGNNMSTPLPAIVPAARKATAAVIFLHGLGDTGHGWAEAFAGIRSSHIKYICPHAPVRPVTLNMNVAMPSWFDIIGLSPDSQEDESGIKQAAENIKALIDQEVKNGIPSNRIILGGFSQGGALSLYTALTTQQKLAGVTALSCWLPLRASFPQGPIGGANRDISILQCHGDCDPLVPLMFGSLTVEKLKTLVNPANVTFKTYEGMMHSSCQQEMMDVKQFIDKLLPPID

In the case of CCCCCCCCCCCCCCCC(=O)SC[C@@H](C(=O)NC)N(C)C(=O)Oc1ccc2c(c1)Oc1cc(N3CCN(C(=O)CCC(=O)O)CC3)ccc1C21OC(=O)c2ccccc21 (stereo partly drawn) [DPP-5], the “enhancement in intensity of fluorescence signal” value (APT2 [1]; 1 μM probe, 50 nM APT2, 30 minutes, absence of detergents) is reported as 350 fold, the “in vitro kinetics” value (APT2 [1]; APT2, absence of detergents) is reported as “more rapid turn-on response” and the LogP [2] is reported as 0.79. For the same compound, the Kcat (APT2 [3]) was 0.066 s⁻¹, the Km (APT2 [3]; Lineweaver-Burk) was 2.1 µM and the “enhancement in intensity of fluorescence signal” value (APT1 [4]; 1 μM probe, 50 nM APT1, 30 minutes, absence of detergents) was 350 fold. The “in vitro kinetics” value (APT1 [4]; APT1, absence of detergents) was “more rapid turn-on response”, the Kcat (APT1 [5]) was 0.044 s⁻¹ and the Km (APT1 [5]; Lineweaver-Burk) was 1.6 µM.
